Columns and labels:
Format in all cases: biochemical
[1] = target: T1, Aspergillus niger glucose oxidase (GOx), wild type, SEQ ID NO: 3 (Aspergillus niger, UniProt P13006); experiment: Kinetic constants by ABTS assay, wt GOx; conditions: 2.5-100 mM glucose
T1 construct: made in house; host or cells: Saccharomyces cerevisiae (pYES2 vector)
Source text: (§1) For detection of GOx activity the ABTS assay was used. 2,2'-azino-bis(3-ethylbenzthiazoline-6-sulphonic acid (ABTS) is commonly used as a substrate with hydrogen peroxide for a peroxidase generating enzyme. Its use allows the reaction kinetics of peroxidases to be followed, to indirectly follow the reaction kinetics of a hydrogen peroxide-producing enzyme or to quantify the amount of hydrogen peroxide in a sample [vanGijlswijk, R.P.M., et al., Fluorochrome-labeled tyramides: Use in immunocytochemistry and fluorescence in situ hybridization. Journal of Histochemistry & Cytochemistry, 1997. 45(3): p. 375-382].
(§2) The kinetic constants were determined using the Specord 200 from (Analytik Jena, Germany) and the ABTS assay [Zhu, Z.W., et al. 2006, Making glucose oxidase fit for biofuel cell applications by directed protein evolution. Biosensors & Bioelectronics, 21(11): 2046-2051]. The measurements were performed in 1 ml of reaction volume and 1 cm light pathway cuvettes, using 2.5, 5, 10, 25, 50 and 100 mM glucose. The data were fitted using Origin 6 (OriginLab Corporation, Northampton).

[2] = target: T2, Aspergillus niger glucose oxidase (GOx) parent mutant B11, T30V, I94V, SEQ ID NO: 5 (Aspergillus niger, UniProt P13006, I116V/T52V); experiment: Kinetic constants by ABTS assay, parent GOx B11; conditions: as restated in the description text
T2 construct: made in house; host or cells: Saccharomyces cerevisiae (pYES2 plasmid B11 GOx)
T2 sequence (P13006 23-605 T52V/I116V limits assumed): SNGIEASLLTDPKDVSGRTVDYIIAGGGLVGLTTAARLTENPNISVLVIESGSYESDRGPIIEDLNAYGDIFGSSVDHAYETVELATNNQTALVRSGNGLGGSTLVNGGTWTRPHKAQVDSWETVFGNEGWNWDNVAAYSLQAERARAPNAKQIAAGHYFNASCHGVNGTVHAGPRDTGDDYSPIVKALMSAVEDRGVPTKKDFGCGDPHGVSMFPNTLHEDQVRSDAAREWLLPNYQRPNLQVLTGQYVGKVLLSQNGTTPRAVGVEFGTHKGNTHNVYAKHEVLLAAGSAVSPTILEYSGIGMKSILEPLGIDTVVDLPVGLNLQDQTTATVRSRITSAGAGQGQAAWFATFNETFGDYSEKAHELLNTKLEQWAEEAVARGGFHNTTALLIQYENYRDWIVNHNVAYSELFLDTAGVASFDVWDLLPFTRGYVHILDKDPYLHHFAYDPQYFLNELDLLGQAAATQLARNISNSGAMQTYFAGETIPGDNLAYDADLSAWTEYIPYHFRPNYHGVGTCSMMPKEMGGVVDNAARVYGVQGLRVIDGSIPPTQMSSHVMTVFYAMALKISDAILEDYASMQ
Source text: as §1, §2

[3] = target: T3, Aspergillus niger glucose oxidase (GOx) variant M12, N2Y, K13E, T30V, I94V, K152R, SEQ ID NO: 1 (Aspergillus niger, UniProt P13006, I116V/K174R/K35E/N24Y/T52V); experiment: Kinetic constants by ABTS assay, GOx mutant M12; conditions: as restated in the description text
T3 construct: made in house; host or cells: Saccharomyces cerevisiae (pYES2)
T3 sequence (P13006 23-605 N24Y/K35E/T52V/I116V/K174R limits assumed): as the sequence (P13006 23-605 T52V/I116V limits assumed) above, with N2Y, K13E, K152R counted along it
Source text: as §1, §2

T1 sequence (P13006 23-605 limits assumed): as the sequence (P13006 23-605 T52V/I116V limits assumed) above, with V30T, V94I counted along it

Which kcat [1] does the source give for `OC[C@H]1OC(O)[C@H](O)[C@@H](O)[C@@H]1O` (stereo partly drawn) [glucose] here?
The kcat was 54.8 s'.

What about the kcat [2] of the same compound?
The kcat was 80 s'.

And the kcat [3]?
The kcat was 150 s⁻¹.
